Reference: patent publication US7943797B2, “Products for the treatment of the iron chlorosis” (Tradecorp, S.A., priority 2006, dated 2011)

Assays:
[1] = test system: Soybean plants (Glycine max L. cv. Stine 0480) with induced Fe chlorosis; test: Efficacy of Fe chelates to provide Fe to soybean plants in hydroponics: Fe content in plants; type: in vivo
Protocol: (§1) Soybean seeds (Glycine max L. cv. Stine 0480) were germinated at 30° C. and 60% RH on paper moistened with 1 M CaSO4 in dark for 2 days. Afterwards, seedlings were placed in 10 L containers (50 seedlings per container) filled with a 1/5 diluted EDTA buffered nutrient solution (macronutrients (mM)—1.0 Ca(NO3)2, 0.9 KNO3, 0.3 MgSO4, 0.1 KH2PO4; cationic micronutrients (μM)—5.0 EDTA/Fe^3+, 2.5 MnSO4, 1.0 CuSO4, 10 ZnSO4, 1.0 CoSO4, 1.0 NiCl2, 115.5 Na2EDTA; anionic micronutrients (μM)-35 NaCl, 10 H3BO3, 0.05 Na2MoO4; 0.1 mM HEPES) for 6 days. On the 7th day, in order to induce Fe chlorosis, seedlings were transferred to 12 L polypropylene buckets containing aerated full strength EDTA buffered nutrient solution but without Fe^3+-chelate. Plants were grown under these conditions until clear symptoms of Fe deficiency were observed (7 days) and then plants were placed in 2 L pots (6 plants per pot) covered with black plastic to avoid light exposure. The effect of different Fe chelates and doses were compared as Fe sources. Chelates used in the treatments were o,o-EDDHA/Fe^3+, o,p-EDDHA/Fe^3+, EDTA/Fe^3+ and Example 1/Fe^3+. The last one is the Fe chelate of the compound of the example 1: 2-(2-((2-hydroxybenzyl)amino)ethylamino)-2-(2-hydroxyphenyl)acetic acid (DCHA). Nutrient solution contained macronutrients and anionic micronutrients as for the seedling period and the following cationic micronutrients composition: (μM) 1.0 MnSO4, 0.5 CuSO4, 0.5 ZnSO4, 0.1 NiCl2 and 0.1 CoSO4. Also, 1 g·L^−1 of CaCO3 was added to the nutrient solution to buffer pH at 7.5 and to simulate conditions of a calcareous soil. Plants were grown for 21 days in this nutrient solution in a growth chamber provided with fluorescent and sodium vapour lamps with a 16 h/30° C. and 50% humidity day and 8 h/25° C. and 70% humidity night regime. Water was added every 2 days and the nutrient solution was renewed every 7 days. Treatments were replicated four times in a completely randomised design. Plants were harvested after 7, 14 and 21 days.
Root and shoot were separated and washed using Tween 80 (Merck) and HCl solution and fresh and dry (after oven dry procedure) weights were determined. Samples were ground and after dry digestion in a muffle furnace (480° C.), ashes are dissolved in HCl. Fe, Mn, Cu and Zn were analysed by atomic absorption spectrometry.

[2] = test system: Soybean plants (Glycine max L. cv. Stine 0480) with induced Fe chlorosis; test: Efficacy of Fe chelates to provide Fe to soybean plants in hydroponics: SPAD index; type: in vivo; conditions: for Regreening of plants (SPAD index): 20 days after treatment, regardless of the doses (5 and 10 μM)
Protocol: as §1
(§2) During the experiment, SPAD readings with a chlorophyll-meter (Minolta SPAD-502) were taken for all leaf stages (average of two or three readings per stage) every second day. Only values measured for the youngest fully open leaves (the 2nd stage at the 2nd day, the third at the 10th day and the fourth at the 20th day) are here presented (Table 1)

[3] = test system: Soybean plants (Glycine max L. cv. Stine 0480) with induced Fe chlorosis; test: Efficacy of Fe chelates to provide Fe to soybean plants in soil conditions: SPAD index; type: in vivo; conditions: for SPAD index / Recovery from chlorosis (SPAD): calcareous soil; for Recovery from chlorosis (SPAD): two days after the treatment application
Protocol: (§3) Soybean seeds (Glycine max L. cv. Stine 0480) were germinated at 30° C. and 60% RH on paper moistened with 1 M CaSO4 in dark for 2 days. Afterwards, seedlings were placed in 10 L containers (50 seedlings per container) filled with a 1/5 diluted EDTA buffered nutrient solution (macronutrients (mM)—1.0 Ca(NO3)2, 0.9 KNO3, 0.3 MgSO4, 0.1 KH2PO4; cationic micronutrients (μM)—5.0 EDTA/Fe^3+, 2.5 MnSO4, 1.0 CuSO4, 10 ZnSO4, 1.0 CoSO4, 1.0 NiCl2, 115.5 Na2EDTA; anionic micronutrients (μM)—35 NaCl, 10 H3BO3, 0.05 Na2MoO4; 0.1 mM HEPES) for 4 days. Then, in order to induce Fe chlorosis, nutrient solution without iron was used for two more days and then plants were transplanted in 1 L pots (3 plants per pot) containing 700 g of a calcareous soil ([…] calcium carbonate, 89 g·Kg^−1 CaCO3 active, pH 7.70) and 300 g of lime sand covered with black plastic to avoid light exposure. The effect of different Fe chelates were compared as Fe sources: o,o-EDDHA/Fe^3+, o,p-EDDHA/Fe^3+, EDTA/Fe^3+ and Example 1/Fe^3+. The last one is the Fe chelate of the compound of the example 1: 2-(2-((2-hydroxybenzyl)amino)ethylamino)-2-(2-hydroxyphenyl)acetic acid. Plants were grown for 21 days in this soil conditions in a growth chamber provided with fluorescent and sodium vapour lamps with a 16 h/30° C. and 50% humidity day and 8 h/25° C. and 70% humidity night regime. Treatments were replicated five times in a completely randomised design. Single plants were harvested after 2, 7 and 21 days.
as §2, with “Values” for “Only values”, “the” for “the youngest fully open leaves (the”, “12th” for “10th”, “fourth and fifth” for “fourth”, “22th” for “20th”, “4).” for “1)”

[4] = test system: Soybean plants (Glycine max L. cv. Stine 0480) with induced Fe chlorosis; test: Efficacy of Fe chelates in soil conditions: shoot dry weight and Fe concentration in leaves; type: in vivo; conditions: calcareous soil, three sampling times
Protocol: as §3, with “Plants were grown for 21 days in this soil conditions in a growth chamber provided with fluorescent and sodium vapour lamps with a 16 h/30° C. and 50% humidity day and 8 h/25° C. and 70% humidity night regime. Treatments were replicated five times in a completely randomised design. Single plants were harvested after 2, 7 and 21 days.” left out
In each sampling time shoots were separated and washed using Tween 80 (Merck) and HCl solution and fresh and dry (after oven dry procedure) weights were determined. […] Fe, Mn, Cu and Zn were analysed by atomic absorption spectrometry.

[5] = compared with o,o-EDDHA/Fe^3+; Yunta et al. 2003; cited from earlier work
[6] = 5 μM chelate (low dose), 1st sampling 7 days after treatment
[7] = 5 μM chelate (low dose), 2nd sampling 14 days after treatment
[8] = 5 μM chelate (low dose), 3rd sampling 21 days after treatment
[9] = 10 μM chelate (high dose), 1st sampling 7 days after treatment
[10] = 10 μM chelate (high dose), 2nd sampling 14 days after treatment
[11] = 10 μM chelate (high dose), 3rd sampling 21 days after treatment
[12] = 5 μM chelate, 2 days after treatment (2nd stage)
[13] = 5 μM chelate, 10 days after treatment (3rd stage)
[14] = 5 μM chelate, 20 days after treatment (4th stage)
[15] = 10 μM chelate, 2 days after treatment (2nd stage)
[16] = 10 μM chelate, 10 days after treatment (3rd stage)
[17] = 10 μM chelate, 20 days after treatment (4th stage)
[18] = 2 days after treatment (2nd stage)
[19] = 12 days after treatment (3rd stage)
[20] = 22 days after treatment (4th stage)
[21] = 22 days after treatment (5th stage)

SMILES | Fe content [1, 6] | Fe content [1, 7] | Fe content [1, 8] | Fe content [1, 9] | Fe content [1, 10] | Fe content [1, 11] | SPAD index [2, 12] | SPAD index [2, 13] | SPAD index [2, 14] | SPAD index [2, 15] | SPAD index [2, 16] | SPAD index [2, 17] | SPAD index [3, 18] | SPAD index [3, 19] | SPAD index [3, 20] | SPAD index [3, 21] | Recovery from chlorosis (SPAD) [3] | Regreening of plants (SPAD index) [2] | further results
O=C([O-])CN(CCN(CC(=O)[O-])CC(=O)[O-])CC(=O)[O-].[Fe+3] [EDTA/Fe^3+] | 14.2 c μg Fe per plant | 19.6 c μg Fe per plant | 22.6 c μg Fe per plant | 27.7 b μg Fe per plant | 32.6 b μg Fe per plant | 47.6 b μg Fe per plant | 6.8 bcd | 6.9 days | 11.4 c | 8.1 abc | 16.6 c | 19.9 b |  |  |  |  |  |  | 
O=C([O-])C(NCCNCc1ccccc1[O-])c1ccccc1[O-].[Fe+3] (stereo not shown) [Example 1/Fe^3+] | 57.4 a μg Fe per plant | 152 a μg Fe per plant | 268 a μg Fe per plant | 69.3 a μg Fe per plant | 136 a μg Fe per plant | 235 a μg Fe per plant | 8.4 abc | 32.8 a | 34.8 a | 8.8 ab | 35.7 a | 35.0 a | 23.9 | 41.0 | 34.1 | 26.6 | better recovery |  | Fe provided to plants compared with the other treatments ([1]; hydroponics, lower Fe application (5 μM)): significantly higher amounts of iron and faster; Dry weight of shoots (FIG. 2) [4]: efficient Fe chlorosis corrector
O=C(O)C(NCCNCc1ccccc1O)c1ccccc1O (stereo not shown) [Example 1, 2-(2-((2-hydroxybenzyl)amino)ethylamino)-2-(2-hydroxyphenyl)acetic acid] |  |  |  |  |  |  |  |  |  |  |  |  |  |  |  |  |  | completely regreened | Efficacy against iron chlorosis ([3]; highly calcareous soil, only one treatment application): efficient to solve iron chlorosis in highly calcareous conditions; Speed of action to correct iron chlorosis ([2]; low doses, similar to o,p-EDDHA, higher than o,o-EDDHA): fast action to correct iron chlorosis
O=C([O-])C(NCCNC(C(=O)[O-])c1ccccc1[O-])c1ccc(O)cc1.[Fe+3] (stereo not shown) [o,p-EDDHA/Fe^3+] | 43.0 ab μg Fe per plant | 128 a μg Fe per plant | 223 b μg Fe per plant | 77.8 a μg Fe per plant | 129 a μg Fe per plant | 259 a μg Fe per plant | 8.1 abc | 30.9 ab | 32.2 a | 10.4 a | 33.1 a | 32.9 a | 25.8 | 41.2 | 33.0 | 21.0 | better recovery | completely regreened | Stability of the Fe3+ chelate [5]: lower stability
O=C([O-])C(NCCNC(C(=O)[O-])c1ccccc1[O-])c1ccccc1[O-].[Fe+3] (stereo not shown) [o,o-EDDHA/Fe^3+] | 26.0 bc μg Fe per plant | 83.6 b μg Fe per plant | 202 b μg Fe per plant | 61.4 a μg Fe per plant | 129 a μg Fe per plant | 254 a μg Fe per plant | 6.2 cd | 26.7 b | 30.2 a | 9.1 ab | 31.6 ab | 32.4 a | 22.4 | 42.1 | 34.1 | 28.8 |  | completely regreened | 
